Literature values, collected in patent US12697339B2, “Composition and methods of treatment using synergistically-enhanced supplementation” (Xygenyx Inc., priority 2023, dated 2026).
Non-standard residues stand in square brackets, D forms with d. Residues, ends and D or L forms follow the SMILES beside them. Cit = NC(=O)NCCC[C@H](N)C(=O)O

Legend:
[1] = tested on: wide dynamic range neurons in the ventroposterolateral nucleus of the thalamus; settings: believed
[2] = studies using mice
[3] = in vivo
[4] = compared to α-tocopherol with biological activity factor 1.0
skin [5] = settings: as penetration enhancer for transdermal drugs
skin [6] = settings: topical application, concentrations 0.5-5%
[7] = even when dietary intake occurs in equal portions
skin [8] = settings: topical formulations, within four weeks of treatment
[9] = in vivo; remark: listed apart in the source

CCCCCc1cc(O)c2c(c1)OC(C)(C)C1CCC(C)=CC21 (stereo not drawn) [THC, Δ-9-tetrahydrocannabinol]
power in mediating pain relative to morphine [1]: ten times more powerful than morphine

Cc1c(C)c2c(c(C)c1O)CC[C@@](C)(CCC[C@H](C)CCC[C@H](C)CCCC(C)C)O2 [α-tocopherol]
reduction of risk of coronary disease (dietary supplementation, doses up to 400 IU/day): up to 34% | reduction of risk of developing neurodegenerative diseases such as Alzheimer's Syndrome or dementia (dietary supplementation, doses up to 400 IU/day, controlled trials): ≤ 24% | reduction in the development of age-related cataracts (in combination with 10-20 mg β-carotene and 400-500 mg vitamin C, doses around 400-500 IU): 23%

CC(CN)C(=O)O [L-BAIBA, L-beta-aminoisobutyric acid]
tolerated dose [2]: 10-100 mg/kg of bodyweight

HGH: hormone comprising a peptide chain that is synthesized in the pituitary gland
biological half-life [3]: 10-20 minutes

Cc1cc(O)cc2c1O[C@](C)(CCC[C@H](C)CCC[C@H](C)CCCC(C)C)CC2 [δ-tocopherol]
relative biological activity [4]: 0.03

CC12CCC(CC1)C(C)(C)O2 [Eucalyptol]
factor of increase in drug uptake via the transdermal route (skin [5]): more than 10

C=CCCCCCCCCC(=O)N[C@@H](Cc1ccccc1)C(=O)O [Undecylenoyl phenylalanine]
time of treatment to skin lightening effects (skin [6]): ≥ 7 days

Cc1c(O)cc2c(c1C)O[C@](C)(CCC[C@H](C)CCC[C@H](C)CCCC(C)C)CC2 [γ-tocopherol]
relative biological activity [4]: 0.1 | concentration in vivo relative to α-tocopherol [7]: roughly 10%

CC[C@H](C)[C@H](NC(=O)[C@H](CC(=O)O)NC(=O)[C@@H](N)CCCCN)C(=O)N[C@@H](CCCNC(N)=O)C(N)=O [Tripeptide-10 citrulline] (H-KDI[Cit]-NH2)
improvement of suppleness (skin [8]): ≤ 54%

CC(C)[C@@H]1CC[C@@H](C)C[C@H]1O [Menthol]
factor of increase in drug uptake via the transdermal route (skin [5]): ≥ 10

Cc1cc(O)c(C)c2c1O[C@](C)(CCC[C@H](C)CCC[C@H](C)CCCC(C)C)CC2 [β-tocopherol]
relative biological activity [4]: 0.5

CCNC(=O)CC[C@H](N)C(=O)O [Theanine]
dose considered safe and well-tolerated [9]: up to 400 mg per day
